# Assay results: US12139472B2, “Inhibitors of advanced glycation end products” (priority 2019, dated 2024)
# How the values were obtained:
# [1] = target: T1, CYP1A (Homo sapiens, UniProt P05177); experiment: CYP1A inhibition (HLM) phenacetin; format: in vitro ADME
# T1 construct: Two studies were conducted in human liver microsomes (HLM); tissue Eurofins G232 panel; host or cells: human liver microsomes
# T1 sequence (P05177 1-516): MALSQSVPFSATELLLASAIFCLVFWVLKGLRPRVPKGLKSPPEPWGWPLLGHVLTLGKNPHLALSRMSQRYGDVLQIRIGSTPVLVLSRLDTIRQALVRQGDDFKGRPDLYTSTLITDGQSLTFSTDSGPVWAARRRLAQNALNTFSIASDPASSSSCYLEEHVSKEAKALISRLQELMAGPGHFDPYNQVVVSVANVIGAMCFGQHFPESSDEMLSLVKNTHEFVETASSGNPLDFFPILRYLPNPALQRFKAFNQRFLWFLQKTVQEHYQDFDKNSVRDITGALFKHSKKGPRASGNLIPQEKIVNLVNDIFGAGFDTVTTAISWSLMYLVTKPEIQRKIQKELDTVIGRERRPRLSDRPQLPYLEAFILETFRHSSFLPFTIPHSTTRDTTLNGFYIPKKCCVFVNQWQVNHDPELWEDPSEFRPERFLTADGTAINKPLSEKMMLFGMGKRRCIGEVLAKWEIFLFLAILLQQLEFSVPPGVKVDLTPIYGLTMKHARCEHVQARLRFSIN
# Protocol: (§1) Compound 5 (PTG-630 free base) and 7 additional compounds for CYP3A P450 inhibition.
# (§2) Two studies were conducted in human liver microsomes (HLM). Lead candidate PTG-630 was tested using the Eurofins G232 panel (Drug Metab Dispos. 2001 January; 29(1):23-9), where inhibition was measured against seven CYP enzymes; CYP3A4 was tested using two different substrates, midazolam and testosterone. In a second study, inhibition of CYP3A4 (midazolam substrate only) was compared for 8 compounds of interest. The test protocol involved one-point measurements in duplicate, where inhibition was measured at a fixed 10 μM concentration of candidate inhibitors. In all cases, the substrate for each CYP enzyme was at a concentration equal to its specific Km value that was independently obtained from an 8-point dose-response study. Based on the observed value for percent inhibition for each test compound, we calculated of an IC50 assuming a competitive mode of inhibition. If percent inhibition for an inhibitor at a concentration of [I] is denoted by P, then: IC50=[I]*(100−P)/P In the single-point assay, [I] is 10 μM. If measured inhibition is 10%, then IC50=10*(100-10)/10=90 μM. […] As discussed in Lin et al. (J Pharm Sci. 2007 September; 96(9):2485-93; doi: 10.1002/jps.20884), CYP inhibition is broadly interpreted as being “potent” if IC50<1 μM, “moderate” if 1 μM<IC50<10 μM, and “weak” if IC50>10 μM.
# [2] = target: T2, CYP2C19 (Homo sapiens, UniProt P33261); experiment: CYP2C19 inhibition (HLM), omeprazole; format: in vitro ADME
# T2 construct: Two studies were conducted in human liver microsomes (HLM); tissue Eurofins G232 panel; host or cells: human liver microsomes
# Protocol: as §1, §2
# [3] = Preparation of dosing solutions in 0.5% methyl cellulose and 0.1% Tween 20 in water; format: physicochemical; conditions: 0.5% methyl cellulose
# Protocol: Compound 5 (PTG-630 free base) and Compound 19 (PTG-630 HCl salt) solutions were prepared in 0.5% methyl cellulose and 0.1% Tween 20 in water for administration to animals by oral gavage (PO).
# Compound 5 was administered at 10 mg/kg and 100 mg/kg. […] The solution was vortexed vigorously for minutes and then sonicated in a water bath for 5 min. The solution remained as a thick creamy yellowish suspension at pH 8. The solution for the 10 mg/kg free base dose (2 mg/ml solution) was easier to prepare. […] The final solution that was administered was a clear, light yellowish solution with few small particulates in suspension.
# Compound 19 was administered at 10 mg/kg. […] The solution (2 mg/ml) was clear yellowish (although lighter than the Compound 5 solution at 2 mg/ml) with no particulates in suspension. The pH decreased to 3.
# [4] = target: T3, CYP2D6 (Homo sapiens, UniProt P10635); experiment: CYP2D6 inhibition (HLM), dextromethorphan; format: in vitro ADME
# T3 construct: Two studies were conducted in human liver microsomes (HLM); tissue Eurofins G232 panel; host or cells: human liver microsomes
# Protocol: as §1, §2
# [5] = target: T4, CYP2C8 (Homo sapiens, UniProt P10632); format: in vitro ADME; conditions: microsomes
# T4 construct: Two studies were conducted in human liver microsomes (HLM); tissue Eurofins G232 panel; host or cells: human liver microsomes
# T4 sequence (P10632 1-490): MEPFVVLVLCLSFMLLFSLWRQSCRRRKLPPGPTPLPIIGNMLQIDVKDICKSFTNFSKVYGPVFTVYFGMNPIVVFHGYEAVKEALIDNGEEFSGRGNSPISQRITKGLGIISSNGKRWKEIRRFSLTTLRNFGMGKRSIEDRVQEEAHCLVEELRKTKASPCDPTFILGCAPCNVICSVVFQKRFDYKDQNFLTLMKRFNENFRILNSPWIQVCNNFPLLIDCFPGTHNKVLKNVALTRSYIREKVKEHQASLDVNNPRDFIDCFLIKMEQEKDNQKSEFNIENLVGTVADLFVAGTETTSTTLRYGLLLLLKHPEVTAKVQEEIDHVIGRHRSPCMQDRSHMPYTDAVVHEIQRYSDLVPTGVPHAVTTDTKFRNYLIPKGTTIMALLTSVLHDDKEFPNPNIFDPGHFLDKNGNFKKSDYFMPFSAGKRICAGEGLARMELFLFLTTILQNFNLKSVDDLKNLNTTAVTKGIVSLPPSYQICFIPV
# Protocol: as §1, §2
# [6] = target: T5, CYP2B6 (Homo sapiens, UniProt P20813); format: in vitro ADME; conditions: microsomes
# T5 construct: Two studies were conducted in human liver microsomes (HLM); tissue Eurofins G232 panel; host or cells: human liver microsomes
# T5 sequence (P20813 1-491): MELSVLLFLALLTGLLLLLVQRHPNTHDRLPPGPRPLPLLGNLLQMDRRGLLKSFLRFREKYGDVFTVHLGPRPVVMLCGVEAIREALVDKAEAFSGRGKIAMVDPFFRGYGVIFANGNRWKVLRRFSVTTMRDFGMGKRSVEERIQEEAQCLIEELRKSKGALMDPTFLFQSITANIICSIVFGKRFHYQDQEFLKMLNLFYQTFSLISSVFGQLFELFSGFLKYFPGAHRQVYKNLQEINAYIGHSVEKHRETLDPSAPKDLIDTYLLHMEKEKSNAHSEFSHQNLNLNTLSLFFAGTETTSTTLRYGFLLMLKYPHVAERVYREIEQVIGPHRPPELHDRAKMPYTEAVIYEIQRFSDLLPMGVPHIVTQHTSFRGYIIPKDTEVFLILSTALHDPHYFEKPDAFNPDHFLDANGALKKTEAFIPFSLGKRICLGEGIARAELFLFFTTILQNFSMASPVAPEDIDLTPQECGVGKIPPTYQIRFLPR
# Protocol: as §1, §2
# T3 sequence (P10635 whole entry): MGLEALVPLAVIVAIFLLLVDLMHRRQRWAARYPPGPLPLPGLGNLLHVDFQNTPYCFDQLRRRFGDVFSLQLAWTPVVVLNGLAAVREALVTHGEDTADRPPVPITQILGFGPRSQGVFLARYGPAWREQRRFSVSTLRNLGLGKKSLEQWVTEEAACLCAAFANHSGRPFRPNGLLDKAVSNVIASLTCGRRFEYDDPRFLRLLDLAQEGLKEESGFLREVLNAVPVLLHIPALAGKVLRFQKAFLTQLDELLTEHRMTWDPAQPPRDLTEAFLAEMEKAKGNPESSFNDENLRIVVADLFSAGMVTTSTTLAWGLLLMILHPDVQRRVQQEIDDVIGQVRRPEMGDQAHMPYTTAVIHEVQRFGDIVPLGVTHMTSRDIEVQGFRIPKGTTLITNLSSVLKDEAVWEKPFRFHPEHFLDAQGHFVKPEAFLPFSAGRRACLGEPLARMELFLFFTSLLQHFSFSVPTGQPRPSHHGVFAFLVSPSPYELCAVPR
# T2 sequence (P33261 whole entry): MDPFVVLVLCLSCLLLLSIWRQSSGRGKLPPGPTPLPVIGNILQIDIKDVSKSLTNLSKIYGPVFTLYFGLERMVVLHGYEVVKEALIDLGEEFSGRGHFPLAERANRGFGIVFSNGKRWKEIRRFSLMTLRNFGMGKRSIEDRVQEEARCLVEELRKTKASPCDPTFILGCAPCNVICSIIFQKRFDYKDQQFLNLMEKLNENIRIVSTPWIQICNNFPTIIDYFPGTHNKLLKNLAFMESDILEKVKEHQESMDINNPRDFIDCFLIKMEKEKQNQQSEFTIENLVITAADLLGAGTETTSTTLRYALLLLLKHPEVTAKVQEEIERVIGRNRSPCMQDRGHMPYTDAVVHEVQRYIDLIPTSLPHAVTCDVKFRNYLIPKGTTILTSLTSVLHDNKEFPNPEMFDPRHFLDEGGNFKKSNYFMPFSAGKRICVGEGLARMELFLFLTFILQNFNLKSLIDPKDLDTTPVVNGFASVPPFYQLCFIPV
smiles,measurement,setting,value
Cc1ncc(CN2CCOCC2)c(-c2ncc[nH]2)c1O [PTG-630],IC50,"[1]; phenacetin, from one-point % inhibition at 10 μM, IC50=[I]*(100−P)/P, read-out: Estimated IC50",52.1 µM
same,P % inhib,"[1]; substrate phenacetin at Km, Inhib Conc. 1.0E−05 M",16.1%
same,IC50,"[2]; omeprazole, from one-point % inhibition at 10 μM, IC50=[I]*(100−P)/P, read-out: Estimated IC50",26.4 µM
same,P % inhib,"[2]; substrate omeprazole at Km, Inhib Conc. 1.0E−05 M",27.5%
same,dissolution in vehicle,[3]; 2 mg/ml solution (10 mg/kg dose),few small particles remained
same,dissolution in vehicle,[3]; 20 mg/ml solution (100 mg/kg dose),difficult to dissolve
same,Estimated IC50,"[4]; dextromethorphan, from one-point % inhibition at 10 μM, IC50=[I]*(100−P)/P",— None
same,P % inhib,"[4]; substrate dextromethorphan at Km, Inhib Conc. 1.0E−05 M",−0.83%
same,IC50,[5],37 µM
same,P % inhib,[5],21.3%
same,IC50,[6],213 µM
same,P % inhib,[6],4.5%
